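How tested: cells in 96-well plates exposed to compound for 48 hours at five concentrations. Here, GI50 denotes the concentration required for 50% inhibition of growth. TGI denotes the concentration required for complete inhibition of growth.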 Where only a bound is given, the exact number is not on record here.

The assay relates to MDA-MB-468 breast. Put plainly: inhibition of tumour cell growth, NCI panel, 48 h.
In the case of `CC(=O)Oc1ccc(/C=N/NC(N)=S)nc1`, the GI50 is 2750 nM and the TGI stood at 15300 nM.

On to `Oc1ccc(Cl)cc1Cc1cc(Cl)ccc1O`, for which the GI50 is 2190 nM and the TGI was 7290 nM.

On to `CC1(C)CC[C@]2(C(N)=O)CC[C@]3(C)C(=CC[C@@H]4[C@@]5(C)C/C(=C/c6ccncc6)C(=O)C(C)(C)[C@@H]5CC[C@]43C)[C@@H]2C1`, for which the GI50 was 2330 nM and the TGI amounted to 7440 nM.

As to `C=CC1CN2CCC1CC2C(O)c1ccnc2ccccc12` (stereo unspecified), the GI50 is over 100000 nM and the TGI is over 100000 nM.

Take `COc1cccc(/C=C/C(=O)c2cc3c(N)c(C(=O)Nc4cccc5ccccc45)sc3nc2C)c1`: the GI50 was 1070 nM and the TGI was 3000 nM.

As for `COc1cc([N+](=O)[O-])c2ncccc2c1[N+](=O)[O-]`, the GI50 was 1720 nM and the TGI came out at 3670 nM.

`O=C(NCCCCCCCNC(=O)OCc1ccc2c(Cl)cc(Cl)c(O)c2n1)OCc1ccc2c(Cl)cc(Cl)c(O)c2n1`: the GI50 is 389 nM and the TGI was 1200 nM.

Regarding `CCC(CC(C)C)Nc1ccc(NC(CC)CC(C)C)cc1` (stereo unspecified), the GI50 is 11700 nM and the TGI stood at 24000 nM.

Regarding `Cc1cc(C(O)CN(C)C)cc2c1ccc1cc(C(C)C)ccc12` (stereo unspecified), the GI50 was 1850 nM and the TGI is 3470 nM.

Consider `O=C(Nc1cccc(-n2cc(-c3ccncc3)c(-c3ccc(O)c(Cl)c3)n2)c1)c1cccc(C(F)(F)F)c1`, for which the GI50 is 3190 nM and the TGI was over 100000 nM.

Regarding `Cc1ccc(C(C)C)cc1NC(=O)Nc1ccc([N+](=O)[O-])cc1`, the GI50 was 2390 nM and the TGI came to 6820 nM.

With `CCOc1cc(-c2ccc[nH]2)[nH]c1/C=C1\N=C(C)C(C(=O)OC)=C1C`, the GI50 was 58.3 nM and the TGI came to 444 nM.

As for `Oc1[nH]c2cc(Cl)ccc2c1/C=c1/ccc2c(c1)N=C(c1cc(F)cc(F)c1)N=2`, the GI50 was 2510 nM and the TGI was found to be 5980 nM.

On to `O=c1c2ccccc2oc2ccc(OCCCCCCN3CCCCCC3)cc12`, for which the GI50 is 1970 nM and the TGI amounted to 5870 nM.

Consider `CO[C@@]12[C@@H]3NC3CN1C1=C(C(=O)C(N)=C(C)C1=O)[C@@H]2COC(N)=O` (stereo partly specified), for which the GI50 was 238 nM and the TGI stood at 1280 nM.

As to `CO[C@]1(CN2CCN3CCCC[C@@H]3C2)/C=C/C[C@H](C)[C@@H](C)S(=O)(=O)NC(=O)c2ccc3c(c2)N(C[C@@H]2CC[C@H]21)C[C@@]1(CCCc2cc(Cl)ccc21)CO3`, the GI50 was 166 nM and the TGI stood at 1240 nM.

With `O=S(=O)(NCCCNc1nccc(-c2[nH]c(-c3ccccc3)nc2-c2ccc(F)c(O)c2)n1)c1ccc(C(F)(F)F)cc1`, the GI50 is 2440 nM and the TGI is 7700 nM.

`C[C@@H](Nc1c(C#N)cnc2ccc(-c3cnc(N)nc3)cc12)c1ccccc1`: the GI50 is 722 nM and the TGI is 5800 nM.

On to `O=C(Nc1ccccc1C(=O)N/N=C(\c1ccccc1)c1ccccn1)c1ccc(F)cc1`, for which the GI50 is 192 nM and the TGI is 1110 nM.

Turning to `CC1COCC(C)N1C1=C(Cl)C(=O)c2ccccc2C1=O` (stereo unspecified), the GI50 is 1590 nM and the TGI was 3280 nM.

With `Cc1cc(Cl)ccc1NS(=O)(=O)c1ccc(-c2cnc(C3CC3)o2)cc1`, the GI50 is 86.1 nM and the TGI was 13700 nM.

For `COc1cc(NC(=O)Nc2cnc(Nc3ccc(N4CCOCC4)cc3)nc2Oc2cccc(OC)c2)cc(OC)c1`, the GI50 is 1740 nM and the TGI amounted to 9540 nM.

For `CN1CCN(c2nc(-c3ccncc3)nc3sc4c(c23)CCCCCC4)CC1`, the GI50 was 5200 nM and the TGI stood at 20200 nM.

For the compound `CC/C=C\C/C=C\C[C@H](O)C/C=C1/C(=O)C=C[C@@H]1C/C=C\CCCC(=O)OC`, the GI50 was 1470 nM and the TGI was determined as 3160 nM.

Take `Cc1nc(N)nc2ccccc12`: the GI50 is over 100000 nM and the TGI is over 100000 nM.

Turning to `CC1(C)OC2C(COS(N)(=O)=O)SC(n3cnc4cncnc43)C2O1` (stereo unspecified), the GI50 was over 100000 nM and the TGI is over 100000 nM.

Turning to `COc1ccc(CCc2cc(OC)c(OC)c(OC)c2)cc1`, the GI50 was 59.9 nM and the TGI is over 100000 nM.

In the case of `Nc1[nH]c(=O)ncc1CO`, the GI50 was over 100000 nM and the TGI was over 100000 nM.

These data come from PubChem BioAssay (NCI).
